{"source": "paper PMC5814047", "about": "“Peptidic inhibitors of insulin-degrading enzyme with potential for dermatological applications discovered via phage display” (PLoS ONE, 2018)", "key": {"[1]": {"tested_on": "alpha-1 type I collagen in primary murine skin fibroblasts", "experiment": "Western blotting of cell-associated alpha-1 type I collagen", "assay_type": "cell-based", "settings": "for COL1A1 Adj. Band Vol. normalized to control on each gel: control = Day 0 COL1A1+DMSO sample; for Normalized COL1A1/GAPDH ratio, Mean: mean of 4 replicates; for COL1A1/GAPDH ratio normalized to Day 0, DMSO only control, Mean: mean of 4 replicates (Figure 4E)", "protocol": "(§1) Insulin promotes wound healing and overall skin health by affecting a number of processes, including cell proliferation, cell migration, and the production and secretion of ECM components, particularly type I collagen. We therefore assessed the ability of P12-3A to influence these processes in cultured skin fibroblasts and keratinocytes. To that end, primary mouse skin fibroblasts were grown for 4 d in multiple concentrations of insulin in the presence or absence of P12-3A, and insulin concentration over time was monitored by ELISA. […] Finally, the effects of P12-3A on collagen production in were assessed at both the transcriptional and the posttranslational level in confluent monolayers of fibroblasts. After 4 d of treatment with P12-3A (100 μM), mRNA levels for the major form of collagen, alpha-1 type I collagen (COL1A1), were quantified by RT-PCR and found to be increased to ~2.6 times the levels of untreated cells (Fig 4C). To assess overall levels of collagen production and secretion, we quantified levels of hydroxyproline, a modified amino acid present almost exclusively in collagen proteins. […] Western blotting also confirmed that mature, cell-associated collagen levels were increased in the presence of P12-3A (Fig 4E).\n(§2) Fig 4 Effects of P12-3A on cultured skin cells. A, Insulin concentrations as a function of time in logarithmically growing primary murine skin fibroblasts in the absence or presence of P12-3A (100 μM). […] Data are mean ± SEM of 4 independent replications. *P<0.05, **P<0.01. B, Proliferation of cells in the absence or presence of P12-3A (100 μM). Data are mean ± SEM of 6 independent replications. […] C,D,E, P12-3A (100 μM) potentiates insulin-induced collagen production in skin fibroblasts. Collagen production was assessed by COL1A1 mRNA levels (C), levels of hydroxyproline secreted into the medium (D), and cell-associated mature alpha-1 type I collagen levels detected by Western blotting (E). Data are mean ± SD of 4 independent replications. *P<0.05, **P<0.01. […] Migration of HaCaT cells 48 h after induction of a scratch wound in the presence of the indicated quantities of insulin and/or P12-3A (100 μM). Data are mean ± SEM of 6 independent replications. *P<0.05, **P<0.01.\nProtein was collected using the M-Per Mammalian Extraction Reagent and the concentration was quantified using the Pierce™BCA Protein Assay Kit according to manufacturer’s recommendations (Thermo Fisher Scientific, Waltham, MA, USA). Protein (30 μg/well) was separated SDS-PAGE under reducing conditions using Novex™ 10% polyacrylamide tris-glycine mini gels and transferred to nitrocellulose membranes as described. Briefly, membranes were blocked in 5% non-fat milk in tris-buffered saline supplemented with 0.2% Tween-20 (TBST), cut into segments and incubated for 1 h at room temperature with anti-alpha-1 type I collagen (1:5000) and anti-GAPDH (1:10,000) antibodies, washed extensively in TBST, then probed with anti-rabbit (1:20,000) or anti-goat (1:50,000) secondary antibodies, respectively, and detected by enhanced chemoluminescence using SuperSignal West Pico Substrate. Protein expression, normalized to GAPDH levels, was quantified using the band analysis tools of ImageLab software, version 4.1 (Bio-Rad Laboratories, Inc., Hercules, CA, USA)."}, "[2]": {"tested_on": "multiple peptidases of different protease classes", "experiment": "Activity on additional proteases, FAßB degradation assay", "assay_type": "biochemical", "set-up": "concentration or dose not given beside the values", "settings": "for % activity relative to DMSO-only and no-enzyme controls, Mean: N 8; for % activity relative to DMSO-only and no-enzyme controls, single runs: each run mean of quadruplicates", "protocol": "IDE activity was quantified by monitoring the degradation of Mca-[…](Dnp) (FRET1, 5 μM), fluoresceinated and biotinylated amyloid ß-protein (FAßB; 500 nM) or recombinant human insulin (50 nM) in PBS supplemented with 0.05% BSA. FRET1 degradation was measured by changes in fluorescence (λex = 340 nm, λem = 420 nm); FAßB degradation was monitored by fluorescence polarization (λex = 488 nm, λem = 525 nm), as described; and insulin degradation was quantified by ELISA. In vitro activity assays incorporated recombinant human IDE (1 nM) purified from bacteria. For quantitation of insulin degradation in primary murine skin fibroblasts, cells (1 x 10^5/well) were plated in 96-well plates and maintained in DMEM supplemented with 10% fetal bovine serum (FBS), 2mM glutamine, penicillin and streptomycin. After addition of insulin (10 nM or 100 nM), samples of conditioned medium were removed daily and quickly frozen, then insulin levels were quantified in parallel by ELISA according to manufacturer’s recommendations (Crystal Chem, Downers Grove, IL, USA). Assessment of the activity of P12-3A against a variety of matrix-metalloproteases was conducted using the Matrix Metalloproteinase (MMP) Inhibitor Profiling Kit, Fluorometric RED (Enzo Life Sciences, Inc., Farmingdale, NY, USA) according to manufacturer’s recommendations using the broad-spectrum MMP inhibitor, NNGH, as a positive control.\nSupplementary file pone.0193101.s004.tif: S4 Fig Selectivity of P12-3A for IDE vis-à-vis other proteases. Activity of P12-3A (100 μM) against (A) multiple matrix-metalloproteases (MMPs) and (B) multiple peptidases of different protease classes. […] Data are mean ± SD, n = 8–16 per group. P<0.05 by 2-tailed Student’s t-test. […] See Materials and Methods for details. NEP, neprilysin; mCatD, murine cathepsin D; hCatD, human cathepsin D. (TIF) Click here for additional data file."}, "HaCaT cells": {"tested_on": "HaCaT cells", "experiment": "In vitro scratch wound migration assay", "assay_type": "cell-based", "settings": "for migration of keratinocytes, single replicates (average of two observers) / migration of keratinocytes, Mean: 48 hr after scratching; for migration of keratinocytes, Mean: N 6", "protocol": "as §1, §2\nCell migration in HaCaT cells after induction of scratch wounds was quantified essentially as described. Briefly, HaCaT cells maintained in optimized DMEM (AddexBio Technologies, San Diego, CA, USA) supplemented with 10% FBS, penicillin and streptomycin, were grown to confluency in 24-well tissue culture plates, and scratch wounds were induced with a 200-μL pipette tip. After growth for 48 h in the absence or presence of insulin (10 nM or 100 nM) and/or P12-3A (100 μM), cell migration distance was quantified by two independent, blinded observers using a Nikon TMS inverted light microscope (Nikon Corp., Melville, NY, USA) fitted with a ruler reticle."}, "[3]": {"experiment": "Solubility in assay medium and cell culture medium", "assay_type": "physicochemical", "settings": "cosmetic-grade P12-3A, read-out: soluble up to"}}, "note": "“And” between values parts separate entries of the source, which are not always exact repeats. Equal values may be shown once. Read-outs that look alike come from different tables or passages of the source. Bridge positions count the residues as written; N and C are the ends. Peptide text beside a SMILES is read from it."}
{"smiles": "CC(C)C[C@H](NC(=O)[C@H](CO)NC(=O)[C@@H](N)CCC(N)=O)C(=O)N1CCC[C@H]1C(=O)N[C@@H](Cc1c[nH]c2ccccc12)C(=O)N[C@H]1CSSC[C@@H](C(=O)N[C@H](C(=O)N[C@H](C(N)=O)[C@@H](C)O)C(C)C)NC(=O)[C@H](Cc2c[nH]cn2)NC(=O)[C@@H]2CCCN2C(=O)[C@H](Cc2ccc(O)cc2)NC1=O", "note": "[P12-3A] (H-QSLPWCYPHCVT-NH2; disulfide 6-10 (inferred))", "values": [{"measurement": "COL1A1/GAPDH ratio normalized to Day 0, DMSO only control", "setting": "[1]; Day 0, individual replicates", "value": "102.562 and 78.683 and 108.954 and 116.015"}, {"measurement": "Normalized COL1A1/GAPDH ratio from same sample", "setting": "[1]; Day 0, individual replicates", "value": "1.131 (2×) and 0.868 (2×) and 1.202 (2×) and 1.28 and 1.280"}, {"measurement": "COL1A1 Adj. Band Vol. normalized to control on each gel", "setting": "[1]; Day 0, individual replicates", "value": "1.022 and 0.7932 and 0.9786 and 1.091"}, {"measurement": "Normalized COL1A1/GAPDH ratio, Mean", "setting": "[1]; Day 0", "value": 1.120}, {"measurement": "COL1A1/GAPDH ratio normalized to Day 0, DMSO only control, Mean", "setting": "[1]; Day 0", "value": 102}, {"measurement": "Normalized COL1A1/GAPDH ratio from same sample", "setting": "[1]; Day 4, individual replicates", "value": "4.269 (2×) and 4.793 (2×) and 3.93 and 3.135 (2×) and 3.930"}, {"measurement": "COL1A1 Adj. Band Vol. normalized to control on each gel", "setting": "[1]; Day 4, individual replicates", "value": "3.82 and 4.41 and 3.218 and 2.717"}, {"measurement": "Normalized COL1A1/GAPDH ratio, Mean", "setting": "[1]; Day 4", "value": 4.032}, {"measurement": "COL1A1/GAPDH ratio normalized to Day 0, DMSO only control, Mean", "setting": "[1]; Day 4", "value": 345}, {"measurement": "mature, cell-associated collagen levels", "setting": "[1]; in the presence of P12-3A (100 μM)", "value": "increased"}, {"measurement": "% activity relative to DMSO-only and no-enzyme controls, Mean", "setting": "[2]; Plasmin", "value": 102.2, "unit": "%"}, {"measurement": "% activity relative to DMSO-only and no-enzyme controls, single runs", "setting": "[2]; Plasmin", "value": "81.4012% and 90.4633% and 101.45% and 148.471% and 93.7572% and 91.0067% and 95.3568% and 115.381%"}, {"measurement": "% activity relative to DMSO-only and no-enzyme controls, Mean", "setting": "[2]; Trypsin", "value": 97.0, "unit": "%"}, {"measurement": "% activity relative to DMSO-only and no-enzyme controls, single runs", "setting": "[2]; Trypsin", "value": "89.0897% and 97.7425% and 98.0394% and 101.611% and 90.6127% and 100.837% and 98.0681% and 99.896%"}, {"measurement": "migration of keratinocytes, single replicates (average of two observers)", "setting": "HaCaT cells; 10 nM ins", "value": "10.5 mm and 10.6 mm and 10.1 mm and 8.4 mm and 4.9 mm and 12.6 mm"}, {"measurement": "migration of keratinocytes, Mean", "setting": "HaCaT cells; 10 nM ins", "value": 9.5, "unit": "mm"}, {"measurement": "migration of keratinocytes, single replicates (average of two observers)", "setting": "HaCaT cells; 100 nM ins", "value": "10.1 mm and 11.5 mm and 16.4 mm and 11.4 mm and 14.4 mm and 18.1 mm"}, {"measurement": "migration of keratinocytes, Mean", "setting": "HaCaT cells; 100 nM ins", "value": 13.6, "unit": "mm"}, {"measurement": "migration of keratinocytes", "setting": "HaCaT cells; 100 μM P12-3A, different concentrations of insulin, 48 h", "value": "statistically significant increases"}, {"measurement": "migration of keratinocytes, single replicates (average of two observers)", "setting": "HaCaT cells; no ins", "value": "5.0 mm and 5.9 mm and 3.4 mm and 8.3 mm and 3.2 mm and 4.0 mm"}, {"measurement": "migration of keratinocytes, Mean", "setting": "HaCaT cells; no ins", "value": 4.9, "unit": "mm"}, {"measurement": "solubility", "setting": "[3]; assay medium (PBS/0.05%BSA)", "value": "~500", "unit": "µM"}, {"measurement": "solubility", "setting": "[3]; cell culture medium", "value": "~100", "unit": "µM"}]}
